# Tested on: patients with postpartum depression (PPD)
# Assay: Clinical trial of inhaled 5-MeO-DMT (IDR) in postpartum depression; one patient so far, 6 mg then 12 mg
# Details: 1 patient
# Method: The single-arm, open-label clinical trial will involve 15 adult female patients with clinically diagnosed postpartum depression (PPD).
# The second dose (12 mg) will only be administered if: • a. […] The 6 mg dose was safe and well-tolerated according to the investigator, • c. Any psychoactive effects (PsE) of the prior dose have subsided, and • d. Pre-dose vital parameters and forced expiratory volume in one second (FEV1) are in normal range, or if outside of the normal range, are not clinically significant according to the investigator. • 3. Similarly, a third dose (18 mg) will only be administered if: • a. […] The 12 mg dose was safe and well-tolerated according to the investigator, and • c. Any PsE of the prior dose have subsided, and • d. Pre-dose vital parameters and forced expiratory volume in one second (FEV1) are in normal range, or if outside of the normal range, are not clinically significant according to the investigator.
# The patients will be assessed for a peak psychedelic experience (based on a patient-scored visual analogue scale, the PE scale), sedation, and other endpoints after dosing. Follow-up visits are planned for Day 1, and Day 7 after the dosing day.
# The following criteria must be met by all patients considered for clinical trial participation: • 1. Is female and in the age range between 18 and 45 years (inclusive) at screening. • 2. Has a body mass index (BMI) in the range of 18.5 and 35 kg/m^2 (inclusive) at screening. • 3. Meets the trial criteria for PPD as assessed by a trial psychiatrist or registered psychologist: • a. Diagnosis of Major Depressive Disorder without psychotic features, confirmed by the Mini-International Neuropsychiatric Interview (MINI), with peri-partum onset that began no earlier than gestation and no later than the first 4 weeks postpartum. • b. Has a Montgomery-Åsberg Depression Rating Scale (MADRS) total score of equal to or greater than 28 at screening and pre-dose on Day 0. • 6. […] Patients must have a negative pregnancy test at screening and on the pre-test day (Day −1). • 5. Is willing to delay start of other antidepressant or anxiety medication until after the end of the trial at Day 7 and agrees to keep any psychotherapy unchanged during the trial.
# A potential patient who meets any of the following key exclusion criteria will be excluded from participation in this trial: • 1. Has, based on history, psychiatric assessment, and evaluation of the MINI, a current or prior diagnosis of bipolar disorder, a manic or hypomanic episode, a psychotic disorder, Major Depressive Disorder (MDD) or other mood disorder with psychotic features, obsessive compulsive disorder, post-traumatic stress disorder (PTSD), autism spectrum disorder, borderline personality disorder, schizophrenia, delusional disorder, paranoid personality disorder, schizoaffective disorder, clinically significant intellectual disability, or any other psychiatric comorbidity that renders the patient unsuitable for the trial according to the investigator's judgment. • 2. Has one or more first or second degree relatives with a current or previously diagnosed bipolar disorder, psychotic disorder or other mood disorder (including MDD) with psychotic features. • 3. Is in the judgement of a trial psychiatrist or registered psychologist, at significant risk for suicide based on history, psychiatric assessment, and evaluation of suicidal ideation and suicidal behaviour based on the Columbia-Suicide Severity Rating Scale (C-SSRS). • 4. Has taken anti-depressive medication within 14 days or 5 half-lives (whichever is longer) prior to dosing (exception: within the last 5 weeks in the case of fluoxetine). • 5.
smiles,measurement,setting,value
COc1ccc2[nH]cc(CCN(C)C)c2c1 [5-MeO-DMT],BIMF item 11 (take a little time each week to do something for myself) score,Day 7,6
same,BIMF item 12 (taking good care of my baby's physical needs) score,Day 7,6
same,BIMF item 13 (taking good care of my physical needs) score,Day 7,5
same,BIMF item 14 (good decisions about my baby's health and well being) score,Day 7,6
same,BIMF item 15 (My baby and I are getting into a routine) score,Day 7,6
same,BIMF item 17 (able to take care of my baby and my other responsibilities) score,Day 7,5
same,BIMF item 18 (Anxiety or worry often interferes with my mothering ability) score,Day 7,5
same,BIMF item 19 (getting better at taking care of my baby) score,Day 7,1
same,BIMF item 20 (satisfied with the job I am doing as a new mother) score,Day 7,5
same,BPRS Anxiety improvement,Day 7,6
same,BPRS Anxiety score,Day 7,1
same,BPRS Blunted affect improvement,Day 7,0
same,BPRS Blunted affect score,Day 7,1
same,BPRS Conceptual disorganization improvement,Day 7,0
same,BPRS Conceptual disorganization score,Day 7,1
same,BPRS Depressive Mood improvement,Day 7,5
same,BPRS Depressive Mood score,Day 7,1
same,BPRS Disorientation improvement,Day 7,0
same,BPRS Disorientation score,Day 7,1
same,BPRS Emotional withdrawal improvement,Day 7,4
same,BPRS Emotional withdrawal score,Day 7,1
same,BPRS Excitement improvement,Day 7,1
same,BPRS Excitement score,Day 7,1
same,BPRS Grandiosity improvement,Day 7,0
same,BPRS Grandiosity score,Day 7,1
same,BPRS Guilt feelings improvement,Day 7,5
same,BPRS Guilt feelings score,Day 7,1
same,BPRS Hallucinatory behaviour improvement,Day 7,0
same,BPRS Hallucinatory behaviour score,Day 7,1
same,BPRS Hostility improvement,Day 7,0
same,BPRS Hostility score,Day 7,1
same,BPRS Mannerisms and Posturing improvement,Day 7,0
same,BPRS Mannerisms and Posturing score,Day 7,1
same,BPRS Motor retardation improvement,Day 7,0
same,BPRS Motor retardation score,Day 7,1
same,BPRS Somatic Concern improvement,Day 7,5
same,BPRS Somatic Concern score,Day 7,1
same,BPRS Suspiciousness improvement,Day 7,0
same,BPRS Suspiciousness score,Day 7,1
same,BPRS Tension improvement,Day 7,5
same,BPRS Tension score,Day 7,1
same,BPRS Uncooperativeness improvement,Day 7,0
same,BPRS Uncooperativeness score,Day 7,1
same,BPRS Unusual Thought Content improvement,Day 7,0
same,BPRS Unusual Thought Content score,Day 7,1
same,MADRS Apparent sadness improvement,Day 7,5
same,MADRS Apparent sadness score,Day 7,0
same,MADRS Concentration Difficulties improvement,Day 7,0
same,MADRS Concentration Difficulties score,Day 7,0
same,MADRS Inability to Feel improvement,Day 7,3
same,MADRS Inability to Feel score,Day 7,0
same,MADRS Inner Tension improvement,Day 7,4
same,MADRS Inner Tension score,Day 7,1
same,MADRS Lassitude improvement,Day 7,3
same,MADRS Lassitude score,Day 7,0
same,MADRS Pessimistic Thoughts improvement,Day 7,4
same,MADRS Pessimistic Thoughts score,Day 7,0
same,MADRS Reduced Sleep improvement,Day 7,5
same,MADRS Reduced Sleep score,Day 7,0
same,MADRS Reduced appetite improvement,Day 7,0
same,MADRS Reduced appetite score,Day 7,0
same,MADRS Reported sadness improvement,Day 7,4
same,MADRS Reported sadness score,Day 7,0
same,MADRS Suicidal Thoughts improvement,Day 7,0
same,MADRS Suicidal Thoughts score,Day 7,0
same,BIMF item 10 (trust my own feelings (instincts) in taking care of my baby) Δ,Day 7 vs Day 0,1
same,BIMF item 11 (take a little time each week to do something for myself) Δ,Day 7 vs Day 0,1
same,BPRS Anxiety improvement,Discharge,6
same,BPRS Anxiety score,Discharge,1
same,BPRS Blunted affect improvement,Discharge,0
same,BPRS Conceptual disorganization improvement,Discharge,0
same,BPRS Depressive Mood improvement,Discharge,5
same,BPRS Depressive Mood score,Discharge,1
same,BPRS Disorientation improvement,Discharge,0
same,BPRS Emotional withdrawal improvement,Discharge,4
same,BPRS Emotional withdrawal score,Discharge,1
same,BPRS Excitement improvement,Discharge,1
same,BPRS Excitement score,Discharge,1
same,BPRS Grandiosity improvement,Discharge,0
same,BPRS Guilt feelings improvement,Discharge,5
same,BPRS Guilt feelings score,Discharge,1
same,BPRS Hallucinatory behaviour improvement,Discharge,0
same,BPRS Hostility improvement,Discharge,0
same,BPRS Mannerisms and Posturing improvement,Discharge,0
same,BPRS Motor retardation improvement,Discharge,0
same,BPRS Somatic Concern improvement,Discharge,5
same,BPRS Somatic Concern score,Discharge,1
same,BPRS Suspiciousness improvement,Discharge,0
same,BPRS Tension score,Discharge,1
same,BPRS Uncooperativeness improvement,Discharge,0
same,BPRS Unusual Thought Content improvement,Discharge,0
same,BPRS Anxiety score,baseline,7
same,BPRS Blunted affect score,baseline,1
same,BPRS Conceptual disorganization score,baseline,1
same,BPRS Depressive Mood score,baseline,6
same,BPRS Disorientation score,baseline,1
same,BPRS Emotional withdrawal score,baseline,5
same,BPRS Excitement score,baseline,2
same,BPRS Grandiosity score,baseline,1
same,BPRS Guilt feelings score,baseline,6
same,BPRS Hallucinatory behaviour score,baseline,1
same,BPRS Hostility score,baseline,1
same,BPRS Mannerisms and Posturing score,baseline,1
same,BPRS Motor retardation score,baseline,1
same,BPRS Somatic Concern score,baseline,6
same,BPRS Suspiciousness score,baseline,1
same,BPRS Tension score,baseline,6
same,BPRS Uncooperativeness score,baseline,1
same,BPRS Unusual Thought Content score,baseline,1
same,MADRS Apparent sadness score,baseline,5
same,MADRS Inability to Feel score,baseline,3
same,MADRS Inner Tension score,baseline,5
same,MADRS Lassitude score,baseline,3
same,MADRS Pessimistic Thoughts score,baseline,4
same,MADRS Reported sadness score,baseline,4
same,Total MADRS score,baseline,29
same,changes in vital parameters,shortly after administration,"temporary, clinically non-relevant increase in heart rate and blood pressure"
